How the values were obtained:
Experiment in all cases: relative viability (nuclei count vs DMSO), 5 days (fraction); higher = more cells survive
Crizotinib + Alpelisib = compound: C[C@@H](Oc1cc(-c2cnn(C3CCNCC3)c2)cnc1N)c1c(Cl)ccc(F)c1Cl [Crizotinib] + Cc1nc(NC(=O)N2CCC[C@H]2C(N)=O)sc1-c1ccnc(C(C)(C)C(F)(F)F)c1 [Alpelisib] (partner 2 µM)
How it was run: (§1)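 Relative viability equals treated-well nuclei counts divided by vehicle-well nuclei counts. Counts came from 4× images of lung cancer cell lines grown in 1536-well plates for 5 days after pin-tool dosing on the day after seeding. Dosing used one drug alone or a fixed anchor-drug dose plus five library-drug doses (not always all listed) in √10 steps, and values are medians of duplicate plates.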

Olaparib + Luminespib = compound: O=C(c1cc(Cc2n[nH]c(=O)c3ccccc23)ccc1F)N1CCN(C(=O)C2CC2)CC1 [Olaparib] + CCNC(=O)c1noc(-c2cc(C(C)C)c(O)cc2O)c1-c1ccc(CN2CCOCC2)cc1 [Luminespib] (partner 0.01 µM)
How it was run: as §1

Crizotinib + AZD7762 = compound: C[C@@H](Oc1cc(-c2cnn(C3CCNCC3)c2)cnc1N)c1c(Cl)ccc(F)c1Cl [Crizotinib] + NC(=O)Nc1cc(-c2cccc(F)c2)sc1C(=O)N[C@H]1CCCNC1 [AZD7762] (partner 0.2 µM)
How it was run: as §1

Olaparib + Trametinib = compound: O=C(c1cc(Cc2n[nH]c(=O)c3ccccc23)ccc1F)N1CCN(C(=O)C2CC2)CC1 [Olaparib] + CC(=O)Nc1cccc(-n2c(=O)n(C3CC3)c(=O)c3c(Nc4ccc(I)cc4F)n(C)c(=O)c(C)c32)c1 [Trametinib] (partner 0.02 µM)
How it was run: as §1

Cell Line: 201T
- relative viability (Crizotinib + Alpelisib; first compound 0.1 µM): 1.03
- relative viability (Crizotinib + Alpelisib; first compound 0.3162 µM): 1.04
- relative viability (Crizotinib + Alpelisib; first compound 1 µM): 1.06
- relative viability (Olaparib + Luminespib; first compound 0.08 µM): 1.08
- relative viability (Olaparib + Luminespib; first compound 0.253 µM): 0.959
- relative viability (Olaparib + Luminespib; first compound 2.53 µM): 1.03
- relative viability (Olaparib + Luminespib; first compound 8 µM): 0.972
- relative viability (Crizotinib + AZD7762; first compound 0.01 µM): 0.6
- relative viability (Crizotinib + AZD7762; first compound 0.03162 µM): 0.628
- relative viability (Crizotinib + AZD7762; first compound 0.1 µM): 0.558
- relative viability (Crizotinib + AZD7762; first compound 0.3162 µM): 0.575
- relative viability (Crizotinib + AZD7762; first compound 1 µM): 0.716
- relative viability (Olaparib + Trametinib; first compound 0.08 µM): 0.682
- relative viability (Olaparib + Trametinib; first compound 0.253 µM): 0.695
- relative viability (Olaparib + Trametinib; first compound 2.53 µM): 0.726
- relative viability (Olaparib + Trametinib; first compound 8 µM): 0.668

Cell Line: A549
- relative viability (Crizotinib + Alpelisib; first compound 0.01 µM): 0.657
- relative viability (Crizotinib + Alpelisib; first compound 0.03162 µM): 0.804
- relative viability (Crizotinib + Alpelisib; first compound 0.1 µM): 0.738
- relative viability (Crizotinib + Alpelisib; first compound 0.3162 µM): 0.677
- relative viability (Crizotinib + Alpelisib; first compound 1 µM): 0.793

Cell Line: A-427
- relative viability (Crizotinib + Alpelisib; first compound 0.01 µM): 1.04
- relative viability (Crizotinib + Alpelisib; first compound 0.03162 µM): 1.05
- relative viability (Crizotinib + Alpelisib; first compound 0.1 µM): 1.11
- relative viability (Crizotinib + Alpelisib; first compound 1 µM): 1.06
- relative viability (Olaparib + Luminespib; first compound 0.08 µM): 1.02
- relative viability (Olaparib + Luminespib; first compound 0.253 µM): 0.856
- relative viability (Olaparib + Luminespib; first compound 2.53 µM): 0.859
- relative viability (Olaparib + Luminespib; first compound 8 µM): 0.898
- relative viability (Crizotinib + AZD7762; first compound 0.01 µM): 0.709
- relative viability (Crizotinib + AZD7762; first compound 0.03162 µM): 0.766
- relative viability (Crizotinib + AZD7762; first compound 0.1 µM): 0.773
- relative viability (Crizotinib + AZD7762; first compound 1 µM): 0.684
- relative viability (Olaparib + Trametinib; first compound 0.08 µM): 0.782
- relative viability (Olaparib + Trametinib; first compound 0.253 µM): 0.741
- relative viability (Olaparib + Trametinib; first compound 2.53 µM): 0.719
- relative viability (Olaparib + Trametinib; first compound 8 µM): 0.601

Cell Line: ABC-1
- relative viability (Crizotinib + Alpelisib; first compound 0.01 µM): 0.964
- relative viability (Crizotinib + Alpelisib; first compound 0.03162 µM): 1.15
- relative viability (Crizotinib + Alpelisib; first compound 0.1 µM): 1.22
- relative viability (Crizotinib + Alpelisib; first compound 0.3162 µM): 1.02
- relative viability (Crizotinib + Alpelisib; first compound 1 µM): 0.976
- relative viability (Olaparib + Luminespib; first compound 0.08 µM): 0.816
- relative viability (Olaparib + Luminespib; first compound 8 µM): 0.354
- relative viability (Crizotinib + AZD7762; first compound 0.01 µM): 0.902
- relative viability (Crizotinib + AZD7762; first compound 0.03162 µM): 0.848
- relative viability (Crizotinib + AZD7762; first compound 0.1 µM): 0.695
- relative viability (Crizotinib + AZD7762; first compound 0.3162 µM): 0.671
- relative viability (Crizotinib + AZD7762; first compound 1 µM): 1.34

Cell Line: BEN
- relative viability (Crizotinib + Alpelisib; first compound 0.01 µM): 0.925
- relative viability (Crizotinib + Alpelisib; first compound 0.03162 µM): 0.992
- relative viability (Crizotinib + Alpelisib; first compound 0.1 µM): 0.864
- relative viability (Crizotinib + Alpelisib; first compound 0.3162 µM): 1.26
- relative viability (Crizotinib + Alpelisib; first compound 1 µM): 1.12
- relative viability (Olaparib + Luminespib; first compound 0.253 µM): 0.308
- relative viability (Olaparib + Luminespib; first compound 2.53 µM): 0.283
- relative viability (Olaparib + Luminespib; first compound 8 µM): 0.31
- relative viability (Crizotinib + AZD7762; first compound 0.01 µM): 0.726
- relative viability (Crizotinib + AZD7762; first compound 0.03162 µM): 0.645
- relative viability (Crizotinib + AZD7762; first compound 0.1 µM): 0.671
- relative viability (Crizotinib + AZD7762; first compound 0.3162 µM): 0.586
- relative viability (Crizotinib + AZD7762; first compound 1 µM): 0.679
- relative viability (Olaparib + Trametinib; first compound 0.08 µM): 1.11
- relative viability (Olaparib + Trametinib; first compound 0.253 µM): 0.991
- relative viability (Olaparib + Trametinib; first compound 2.53 µM): 1.07
- relative viability (Olaparib + Trametinib; first compound 8 µM): 1.1

Cell Line: CAL-12T
- relative viability (Crizotinib + Alpelisib; first compound 0.01 µM): 1.19
- relative viability (Crizotinib + Alpelisib; first compound 0.03162 µM): 1.35
- relative viability (Crizotinib + Alpelisib; first compound 0.1 µM): 1.28
- relative viability (Crizotinib + Alpelisib; first compound 0.3162 µM): 1.13
- relative viability (Crizotinib + Alpelisib; first compound 1 µM): 1.36
- relative viability (Olaparib + Luminespib; first compound 0.08 µM): 0.604
- relative viability (Olaparib + Luminespib; first compound 0.253 µM): 0.376
- relative viability (Olaparib + Luminespib; first compound 2.53 µM): 0.365
- relative viability (Olaparib + Luminespib; first compound 8 µM): 0.355
- relative viability (Crizotinib + AZD7762; first compound 0.01 µM): 0.527
- relative viability (Crizotinib + AZD7762; first compound 0.03162 µM): 0.679
- relative viability (Crizotinib + AZD7762; first compound 0.1 µM): 0.624
- relative viability (Crizotinib + AZD7762; first compound 0.3162 µM): 0.635
- relative viability (Crizotinib + AZD7762; first compound 1 µM): 0.694
- relative viability (Olaparib + Trametinib; first compound 0.08 µM): 0.351
- relative viability (Olaparib + Trametinib; first compound 0.253 µM): 0.292
- relative viability (Olaparib + Trametinib; first compound 2.53 µM): 0.417
- relative viability (Olaparib + Trametinib; first compound 8 µM): 0.305

Cell Line: COR-L23
- relative viability (Crizotinib + Alpelisib; first compound 0.01 µM): 0.81
- relative viability (Crizotinib + Alpelisib; first compound 0.03162 µM): 0.77
- relative viability (Crizotinib + Alpelisib; first compound 0.1 µM): 0.659
- relative viability (Crizotinib + Alpelisib; first compound 0.3162 µM): 0.758
- relative viability (Crizotinib + Alpelisib; first compound 1 µM): 0.665
- relative viability (Olaparib + Luminespib; first compound 0.08 µM): 0.722
- relative viability (Olaparib + Luminespib; first compound 0.253 µM): 0.539
- relative viability (Olaparib + Luminespib; first compound 2.53 µM): 0.448
- relative viability (Olaparib + Luminespib; first compound 8 µM): 0.186
- relative viability (Olaparib + Trametinib; first compound 0.08 µM): 0.661
- relative viability (Olaparib + Trametinib; first compound 0.253 µM): 0.642
- relative viability (Olaparib + Trametinib; first compound 2.53 µM): 0.498
- relative viability (Olaparib + Trametinib; first compound 8 µM): 0.451

Cell Line: COR-L 105
- relative viability (Crizotinib + Alpelisib; first compound 0.03162 µM): 0.872
- relative viability (Crizotinib + Alpelisib; first compound 0.1 µM): 0.972
- relative viability (Crizotinib + Alpelisib; first compound 0.3162 µM): 0.88
- relative viability (Crizotinib + Alpelisib; first compound 1 µM): 0.828
- relative viability (Olaparib + Luminespib; first compound 0.08 µM): 0.736
- relative viability (Olaparib + Luminespib; first compound 0.253 µM): 0.782
- relative viability (Olaparib + Luminespib; first compound 2.53 µM): 0.595
- relative viability (Olaparib + Luminespib; first compound 8 µM): 0.565
- relative viability (Olaparib + Trametinib; first compound 0.08 µM): 0.472
- relative viability (Olaparib + Trametinib; first compound 0.253 µM): 0.446
- relative viability (Olaparib + Trametinib; first compound 2.53 µM): 0.425
- relative viability (Olaparib + Trametinib; first compound 8 µM): 0.428

Cell Line: Calu-6
- relative viability (Crizotinib + Alpelisib; first compound 0.01 µM): 0.944
- relative viability (Crizotinib + Alpelisib; first compound 0.1 µM): 0.988
- relative viability (Crizotinib + Alpelisib; first compound 0.3162 µM): 0.925
- relative viability (Crizotinib + Alpelisib; first compound 1 µM): 1.06

Cell Line: ChaGo-K-1
- relative viability (Olaparib + Luminespib; first compound 0.08 µM): 0.596
- relative viability (Olaparib + Luminespib; first compound 0.253 µM): 0.515
- relative viability (Olaparib + Luminespib; first compound 2.53 µM): 0.411
- relative viability (Olaparib + Luminespib; first compound 8 µM): 0.29
- relative viability (Crizotinib + AZD7762; first compound 0.01 µM): 0.83
- relative viability (Crizotinib + AZD7762; first compound 0.03162 µM): 0.841
- relative viability (Crizotinib + AZD7762; first compound 0.1 µM): 0.839
- relative viability (Crizotinib + AZD7762; first compound 0.3162 µM): 0.711
- relative viability (Crizotinib + AZD7762; first compound 1 µM): 0.905
- relative viability (Olaparib + Trametinib; first compound 0.08 µM): 0.949
- relative viability (Olaparib + Trametinib; first compound 0.253 µM): 0.792
- relative viability (Olaparib + Trametinib; first compound 2.53 µM): 0.819
- relative viability (Olaparib + Trametinib; first compound 8 µM): 0.735
